Data on 3 compounds can be found in publication PMC4841451 (Journal of medicinal chemistry, 2016).

Test [1] has as its system pAkt (PI3K activity) in A549 and D54 cells. The experiment in a line: Western blot of pAKT in cultured tumor cells. The class given is cell-based, human. To be noted: 1 h treatment; for PI3K activity, level of pAKT (Western blot): cultured A549 cells; for PI3K inhibition in cells (Western blot): both cell lines (A549, D54).
Test [2] concerns pErk1/2 (MEK1 activity) in A549 and D54 cells. Put plainly: Western blot of pERK1/2 in cultured tumor cells. The class given is cell-based, human. To be noted: both cell lines (A549, D54), 1 h treatment. For orientation: In western blotting, separated proteins are transferred to a membrane and probed.
Test [3] relates to tumor ERK1/2 phosphorylation. Put plainly: In vivo MEK1 inhibition in tumor bearing mice.
A further test concerns D54 glioma cells. The experiment in a line: Cell viability, AlamarBlue assay, D54. The class given is cell-based. To be noted: 48 h. (In general: Resazurin is reduced to fluorescent resorufin, in cell work by metabolically active cells.)
The subject of test [4] is tumor Akt phosphorylation. The experiment in a line: In vivo PI3K inhibition in tumor bearing mice.
Another test deals with A549 lung tumor cells. The experiment in a line: Cell viability, AlamarBlue assay, A549. The class given is cell-based, human. To be noted: 48 h.
Where [5] appears, read: preliminary experiment, A549 and D54 tumors, data not shown.
Setting [6] is: 375 mg/kg oral gavage, 2 h prior to sacrifice, D54 and A549 flank tumors.

For `O=C(CNCCONC(=O)c1ccc(F)c(F)c1Nc1ccc(I)cc1F)NCCCCCC(=O)N1CCN(c2nc(N3CCOCC3)nc(-n3c(C(F)F)nc4ccccc43)n2)CC1` [Compound 7, N-(2-((2-((6-(4-(4-(2-(Difluoromethyl)-1H-benzo[d]imidazol-1-yl)-6-morpholino-1,3,5-triazin-2-yl)piperazin-1-yl)-6-oxohexyl)amino)-2-oxoethyl)amino)ethoxy)-3,4-difluoro-2-((2-fluoro-4-iodophenyl)amino)benzamide], the “PI3K activity, level of pAKT (Western blot)” value (“PI3K activity, level of pAKT” for short) in test [1] is recorded as “high potency”.

In the case of `O=C(NOCCNCCCCCC(=O)N1CCN(c2nc(N3CCOCC3)nc(-n3c(C(F)F)nc4ccccc43)n2)CC1)c1ccc(F)c(F)c1Nc1ccc(I)cc1F` [Compound 9, N-(2-((6-(4-(4-(2-(Difluoromethyl)-1H-benzo[d]imidazol-1-yl)-6-morpholino-1,3,5-triazin-2-yl)piperazin-1-yl)-6-oxohexyl)amino)ethoxy)-3,4-difluoro-2-((2-fluoro-4-iodophenyl)amino)benzamide], the “inhibition of MEK activity in cells (Western blot)” value in test [2] was “most pronounced”. Also, in test [3] (setting [5]), the “ERK1/2 levels in mouse tumors” value is listed as “modulation”. Also, the cell viability entry in the test with D54 glioma cells was “as effective as the combination of ZSTK474 and PD0325901”; in the test on A549 lung tumor cells, “as effective as the combination of ZSTK474 and PD0325901”. In test [1], the “PI3K inhibition in cells (Western blot)” value is reported as “most pronounced”. Moreover, the “PI3K activity, level of pAKT” value in test [1] is “high potency”. Moreover, the “pAkt levels in mouse tumors” value in test [4] (setting [5]) is “modulation”.

For `O=C(NOCCOCCOCCOCCN1CCN(c2nc(N3CCOCC3)nc(-n3c(C(F)F)nc4ccccc43)n2)CC1)c1ccc(F)c(F)c1Nc1ccc(I)cc1F` [Compound 14, N-(2-(2-(2-(2-(4-(4-(2-(Difluoromethyl)-1H-benzo[d]imidazol-1-yl)-6-morpholino-1,3,5-triazin-2-yl)piperazin-1-yl)ethoxy)-ethoxy)ethoxy)ethoxy)-3,4-difluoro-2-((2-fluoro-4-iodophenyl)amino)benzamide], the “inhibition of MEK activity in cells (Western blot)” value in test [2] is given as “most pronounced”. For the same compound, the “phosphorylation of ERK1/2 in excised tumor tissue” value in test [3] (setting [6]) is “inhibited”. In addition, the cell viability entry with D54 glioma cells was “as effective as the combination of ZSTK474 and PD0325901”. For the same compound, in test [1], the “PI3K inhibition in cells (Western blot)” value is given as “most pronounced” and the “PI3K activity, level of pAKT” value was “high potency”. Also, the “phosphorylation of Akt in excised tumor tissue” value in test [4] (setting [6]) is reported as “inhibited”. For the same compound, the cell viability entry in the test with A549 lung tumor cells is “as effective as the combination of ZSTK474 and PD0325901”.
